Experimental findings from patent US10961200B2, “Small molecule inhibitors of lactate dehydrogenase and methods of use thereof” (THE UNITED STATES OF AMERICA, AS REPRESENTED BY THE …, priority 2014, dated 2021) are described below.

A short description of data set [1]: oral pharmacokinetics in male CD1 mice (plasma, LC/MS/MS). The data set is classed as in vivo. Particulars: oral 10 mg/kg; for F: fraction of the dose that enters systemic circulation.
The next data set addresses Human LDHA (Homo sapiens (Human), UniProt P00338). Briefly: human LDHA primary biochemical assay (resazurin/diaphorase coupled, fluorescence). To be noted: LDHA inhibitory activity. The text has this:
Test compounds were placed in a Greiner Bio-One (Monroe, N.C.) 1536-well black solid bottom assay plate. 200 millimolar (mM) Tris HCl, pH 7.4, 100 micromolar […] EDTA and 0.01% TWEEN-20™, final concentration, was used as the assay buffer. The LDHA reagent was 2 nanomolar (nM) Human LDHA (Meridian Life Science, Inc., Memphis, Tenn.), final concentration, in assay buffer.
In general terms: Alamar Blue is a resazurin reagent that responds to reducing activity.

The subject of a further data set is MiaPaCa2 cells. The experiment in a line: cell-based HT lactate assay, colorimetric/fluorometric detection (inhibition of lactate production). To be noted: class symbols, 0 to 3 pluses.
Where [2] appears, read: activity level based on IC50 (Table 7).
Where [3] appears, read: assay of Example 1, activity level classes.

What is called IC50 is the concentration that inhibits the measured activity by half. The low end stands for inhibition by little substance, the high end for a need for much substance. In general, AUC(0-t) refers to exposure summed from dosing to a finite time, without extrapolation to infinity. High values mean high exposure, low ones low exposure. The Cmax is the peak of the concentration-time curve.

Structures are written as SMILES. Where only a bound is given, the exact number is not on record here.

As for `CCOC(=O)c1csc(-n2nc(-c3cccc(-c4ccccc4)c3)c(Cc3ccc(S(N)(=O)=O)cc3)c2C(F)(F)F)n1` [Compound 141, ethyl 2-(3-([1,1′-bipheny]-3-yl)-4-(4-sulfamoylbenzyl)-5-(trifluoromethyl)-1H-pyrazol-1-yl)thiazole-4-carboxylate], the F in data set [1] is 69%.

Consider `NS(=O)(=O)c1ccc(Cc2c(-c3ccc(F)c(Oc4cccc(F)c4)c3)nn(-c3nc(C(=O)O)cs3)c2CC2CC2)cc1F` [Compound 509, 2-(5-(cyclopropylmethyl)-3-(4-fluoro-3-(3-fluorophenoxy)phenyl)-4-(3-fluoro-4-sulfamoylbenzyl)-1H-pyrazol-1-yl)thiazole-4-carboxylic Acid], for which the IC50 against Human LDHA (setting [2]) was below 100 nM; in the data set on MiaPaCa2 cells (Homo sapiens, MIA PaCa-2), below 1000 nM.

With `NS(=O)(=O)c1ccc(Cc2c(-c3cccc(N4CCC(F)(F)CC4)c3)nn(-c3nc(C(=O)O)cs3)c2CC2CC2)cc1F` [Compound 394], the IC50 at Human LDHA (setting [2]) is below 100 nM; with MiaPaCa2 cells it was 10000 to 57000 nM.

For the compound `N[S+](=O)([O-])c1ccc(Cc2c(-c3ccc(F)c(-c4ccc(F)cc4)c3)nn(-c3nc(C(=O)O)cs3)c2CC2CC2)c(F)c1` [Compound 309], the IC50 against Human LDHA (setting [3]) is below 100 nM; in the data set on MiaPaCa2 cells, below 1000 nM.

`N[S+](=O)([O-])c1ccc(Cc2c(-c3ccc(F)c(C#CC4CCCC4)c3)nn(-c3nc(C(=O)O)cs3)c2CC2CC2)cc1` [Compound 430]: the IC50 is below 100 nM against Human LDHA (setting [2]) and below 1000 nM in the data set on MiaPaCa2 cells.

Consider `N[S+](=O)([O-])c1ccc(Cc2c(-c3ccc(F)c(-c4ccc(F)cc4)c3)nn(-c3nc(C(=O)O)cs3)c2CC2CC2)cc1` [Compound 310], for which the IC50 against Human LDHA (setting [3]) is below 100 nM; with MiaPaCa2 cells, below 1000 nM.

Turning to `N[S+](=O)([O-])c1ccc(Cc2c(-c3ccc(F)c(C4CCCCC4)c3)nn(-c3nc(C(=O)O)cs3)c2CC2CC2)cc1F` [Compound 374], the IC50 was below 100 nM against Human LDHA (setting [2]) and below 1000 nM with MiaPaCa2 cells.

Consider `NS(=O)(=O)c1ccc(Cc2c(-c3cccc(-c4ccccc4)c3)nn(-c3nc(C(=O)O)cs3)c2C(F)(F)F)cc1` [Compound 42, 2-(3-([1,1′-biphenyl]-3-yl)-4-(4-sulfamoylbenzyl)-5-(trifluoromethyl)-1H-pyrazol-1-yl)thiazole-4-carboxylic acid], for which, in data set [1] (mouse, plasma), the AUC(0-t) was determined as 1210 ng·h/mL and the Cmax was found to be 159 ng/mL. Further, the F in data set [1] turned out to be 34%.

For `CC(C)(C)NC(=O)c1cc(-c2nn(-c3nc(C(=O)O)cs3)c(CC3CC3)c2Cc2ccc(S(N)(=O)=O)c(F)c2)ccc1F` [Compound 543, 2-(3-(3-(tert-butylcarbamoyl)-4-fluorophenyl)-5-(cyclopropylmethyl)-4-(3-fluoro-4-sulfamoylbenzyl)-1H-pyrazol-1-yl)thiazole-4-carboxylic acid], the IC50 was below 100 nM on Human LDHA (setting [2]) and 1000 to 10000 nM in the data set with MiaPaCa2 cells (Homo sapiens, MIA PaCa-2).

Regarding `NS(=O)(=O)c1ccc(Cc2c(-c3cc(OC4CCCC4)ccc3F)nn(-c3nc(C(=O)O)cs3)c2CC2CC2)cc1` [Compound 468, 2-(3-(5-(cyclopentyloxy)-2-fluorophenyl)-5-(cyclopropylmethyl)-4-(4-sulfamoylbenzyl)-1H-pyrazol-1-yl)thiazole-4-carboxylic acid], the IC50 against Human LDHA (setting [2]) fell in the range of 100 to 1000 nM; with MiaPaCa2 cells (Homo sapiens, MIA PaCa-2) it was 1000 to 10000 nM.

Regarding `NS(=O)(=O)c1ccc(Cc2c(-c3ccc(F)c(Br)c3)nn(-c3nc(C(=O)O)cs3)c2CC2CC2)cc1` [Compound 296], the IC50 was below 100 nM on Human LDHA (setting [3]) and 1000 to 10000 nM in the data set with MiaPaCa2 cells.

With `Cc1ccc(-c2nn(-c3nc(C(=O)O)cs3)c(CC3CC3)c2Cc2ccc(S(N)(=O)=O)cc2)cc1OC1CCCC1` [Compound 467, 2-(3-(3-(cyclopentyloxy)-4-methylphenyl)-5-(cyclopropylmethyl)-4-(4-sulfamoylbenzyl)-1H-pyrazol-1-yl)thiazole-4-carboxylic acid], the IC50 against Human LDHA (setting [2]) was below 100 nM; with MiaPaCa2 cells (Homo sapiens, MIA PaCa-2), below 1000 nM.

As to `Cc1ccc(-c2cccc(-c3nn(-c4nc(C(=O)O)cs4)c(CC4CC4)c3Cc3ccc(S(N)(=O)=O)c(F)c3)c2)cc1` [Compound 332], the results for the half-maximal inhibitory concentration (IC50) against Human LDHA (setting [3]) and with MiaPaCa2 cells were below 100 nM and below 1000 nM, respectively.

For the compound `Cc1ccc(C#Cc2cc(-c3nn(-c4nc(C(=O)O)cs4)c(CC4CC4)c3Cc3ccc(S(N)(=O)=O)c(F)c3)ccc2F)s1` [Compound 408], the IC50 against Human LDHA (setting [2]) is below 100 nM; with MiaPaCa2 cells it was below 1000 nM.

Consider `NS(=O)(=O)c1ccc(Cc2c(-c3cccc(N4CCOCC4)c3)nn(-c3ncc(C(=O)O)s3)c2CC2CC2)cc1F` [Compound 267], for which the IC50 against Human LDHA (setting [3]) was below 100 nM; in the data set with MiaPaCa2 cells it was 10000 to 57000 nM.

In the case of `NS(=O)(=O)c1ccc(Cc2c(-c3ccc(F)c(C4CCCC4)c3)nn(-c3nc(C(=O)O)cs3)c2CC2CC2)cc1F` [Compound 373], the IC50 against Human LDHA (setting [2]) was below 100 nM; with MiaPaCa2 cells, below 1000 nM.

`NS(=O)(=O)c1ccc(Cc2c(-c3ccc(F)c(C4C5CC6CC(C5)CC4C6)c3)nn(-c3nc(C(=O)O)cs3)c2CC2CC2)cc1F` (stereo not shown) [Compound 375]: the IC50 against Human LDHA (setting [2]) is 100 to 1000 nM; in the data set with MiaPaCa2 cells, 1000 to 10000 nM.

For the compound `Cn1cncc1C#Cc1cc(-c2nn(-c3nc(C(=O)O)cs3)c(CC3CC3)c2Cc2ccc(S(N)(=O)=O)c(F)c2)ccc1F` [Compound 405], the IC50 against Human LDHA (setting [2]) was below 100 nM; in the data set on MiaPaCa2 cells, below 1000 nM.

Consider `CC(C)(O)C#Cc1cc(-c2nn(-c3nc(C(=O)O)cs3)c(CC3CC3)c2Cc2ccc(S(N)(=O)=O)c(F)c2)ccc1F` [Compound 265], for which the IC50 against Human LDHA (setting [3]) is below 100 nM; with MiaPaCa2 cells, 1000 to 10000 nM.

Take `NS(=O)(=O)c1ccc(Cc2c(-c3ccc(F)c(C#Cc4cccs4)c3)nn(-c3nc(C(=O)O)cs3)c2CC2CC2)cc1F` [Compound 403]: the IC50 is below 100 nM against Human LDHA (setting [2]) and below 1000 nM in the data set with MiaPaCa2 cells.
